From PubChem BioAssay AID328 (DTP/NCI, 2004)
Several values for one entry are separate records, joined by “and”; a condition that tells them apart may be missing. Identical values can stand only once. Inconclusive results and toxic doses are left out.

Test system: BDF1 mice, P388 leukemia ip, median survival T/C
Experiment: NCI In Vivo Anticancer Drug Screen. Data for tumor model P388 Leukemia (intraperitoneal) in B6D2F1 (BDF1) mice
Conditions: endpoint: median survival time, higher = longer survival
Outline: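 Steps: implant the tumour, treat one group with compound and another with vehicle, record survival, then divide treated by control.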

COC(C(=O)C(O)C(C)O)C1Cc2cc3cc(OC4CC(OC(C)=O)C(OC5CC(O)C(OC)C(C)O5)C(C)O4)cc(O)c3c(O)c2C(=O)C1OC1CC(OC2CC(OC3CC(C)(O)C(OC(=O)C(C)C)C(C)O3)C(O)C(C)O2)C(O)C(C)O1 (stereo unspecified)
T/C (dose: 0.05 mg/kg/injection, schedule: Q01DX010 (ip), vehicle: saline): 113 % of control
T/C (dose: 0.1 mg/kg/injection, schedule: Q01DX010 (ip), vehicle: saline): 90 % of control
T/C (dose: 0.2 mg/kg/injection, schedule: Q01DX010 (ip), vehicle: saline): 154 % of control
T/C (dose: 0.25 mg/kg/injection, schedule: Q01DX009 (ip), vehicle: other): 150 % of control
T/C (dose: 0.25 mg/kg/injection, schedule: Q01DX009 (ip), vehicle: saline): 111 % of control
T/C (dose: 0.25 mg/kg/injection, schedule: Q01DX010 (ip), vehicle: saline): 154 % of control and 172 % of control
T/C (dose: 0.36 mg/kg/injection, schedule: Q01DX005 (ip), vehicle: carboxymethylcellulose (CMC)): 155 % of control
T/C (dose: 0.37 mg/kg/injection, schedule: Q01DX009 (ip), vehicle: carboxymethylcellulose (CMC)): 155 % of control
T/C (dose: 0.37 mg/kg/injection, schedule: Q01DX009 (sc), vehicle: carboxymethylcellulose (CMC)): 100 % of control
T/C (dose: 0.38 mg/kg/injection, schedule: Q01DX010 (ip), vehicle: saline): 177 % of control
T/C (dose: 0.4 mg/kg/injection, schedule: Q01DX010 (ip), vehicle: saline): 157 % of control and 172 % of control
T/C (dose: 0.5 mg/kg/injection, schedule: Q01DX001 (ip), vehicle: other): 104 % of control
T/C (dose: 0.5 mg/kg/injection, schedule: Q01DX009 (ip), vehicle: other): 162 % of control
T/C (dose: 0.5 mg/kg/injection, schedule: Q01DX009 (ip), vehicle: saline): 94 % of control and 100 % of control
T/C (dose: 0.5 mg/kg/injection, schedule: Q01DX010 (ip), vehicle: saline): 190 % of control and 213 % of control
T/C (dose: 0.75 mg/kg/injection, schedule: Q01DX005 (ip), vehicle: carboxymethylcellulose (CMC)): 165 % of control
T/C (dose: 0.75 mg/kg/injection, schedule: Q01DX009 (ip), vehicle: carboxymethylcellulose (CMC)): 190 % of control
T/C (dose: 0.75 mg/kg/injection, schedule: Q01DX009 (sc), vehicle: carboxymethylcellulose (CMC)): 100 % of control
T/C (dose: 0.75 mg/kg/injection, schedule: Q01DX010 (ip), vehicle: saline): 218 % of control
T/C (dose: 1.0 mg/kg/injection, schedule: Q01DX001 (ip), vehicle: other): 108 % of control
T/C (dose: 1.0 mg/kg/injection, schedule: Q01DX001 (sc), vehicle: carboxymethylcellulose (CMC)): 100 % of control
T/C (dose: 1.0 mg/kg/injection, schedule: Q01DX009 (ip), vehicle: other): 179 % of control
T/C (dose: 1.0 mg/kg/injection, schedule: Q01DX009 (ip), vehicle: saline): 111 % of control and 100 % of control
T/C (dose: 1.0 mg/kg/injection, schedule: Q01DX010 (ip), vehicle: saline): 240 % of control and 227 % of control and 195 % of control
T/C (dose: 1.0 mg/kg/injection, schedule: Q## X003 (ip), vehicle: carboxymethylcellulose (CMC)): 165 % of control
T/C (dose: 1.0 mg/kg/injection, schedule: Q## X008 (ip), vehicle: carboxymethylcellulose (CMC)): 155 % of control
T/C (dose: 1.0 mg/kg/injection, schedule: Q## X024 (ip), vehicle: carboxymethylcellulose (CMC)): 110 % of control
T/C (dose: 1.5 mg/kg/injection, schedule: Q01DX005 (ip), vehicle: carboxymethylcellulose (CMC)): 215 % of control
T/C (dose: 1.5 mg/kg/injection, schedule: Q01DX009 (ip), vehicle: carboxymethylcellulose (CMC)): 235 % of control
T/C (dose: 1.5 mg/kg/injection, schedule: Q01DX009 (oral), vehicle: carboxymethylcellulose (CMC)): 100 % of control
T/C (dose: 1.5 mg/kg/injection, schedule: Q01DX009 (sc), vehicle: carboxymethylcellulose (CMC)): 104 % of control
T/C (dose: 1.5 mg/kg/injection, schedule: Q01DX010 (ip), vehicle: saline): 195 % of control and 218 % of control
T/C (dose: 1.6 mg/kg/injection, schedule: Q01DX010 (ip), vehicle: saline): 161 % of control
T/C (dose: 2.0 mg/kg/injection, schedule: Q01DX001 (ip), vehicle: other): 116 % of control
T/C (dose: 2.0 mg/kg/injection, schedule: Q01DX001 (ip), vehicle: saline): 116 % of control
T/C (dose: 2.0 mg/kg/injection, schedule: Q01DX001 (sc), vehicle: carboxymethylcellulose (CMC)): 100 % of control
T/C (dose: 2.0 mg/kg/injection, schedule: Q01DX009 (ip), vehicle: saline): 111 % of control
T/C (dose: 2.0 mg/kg/injection, schedule: Q01DX010 (ip), vehicle: saline): 227 % of control
T/C (dose: 2.0 mg/kg/injection, schedule: Q## X003 (ip), vehicle: carboxymethylcellulose (CMC)): 150 % of control
T/C (dose: 2.0 mg/kg/injection, schedule: Q## X024 (ip), vehicle: carboxymethylcellulose (CMC)): 90 % of control
T/C (dose: 3.0 mg/kg/injection, schedule: Q01DX005 (ip), vehicle: carboxymethylcellulose (CMC)): 260 % of control
T/C (dose: 3.0 mg/kg/injection, schedule: Q01DX009 (ip), vehicle: carboxymethylcellulose (CMC)): 95 % of control
T/C (dose: 3.0 mg/kg/injection, schedule: Q01DX009 (oral), vehicle: carboxymethylcellulose (CMC)): 90 % of control
T/C (dose: 3.0 mg/kg/injection, schedule: Q01DX009 (sc), vehicle: carboxymethylcellulose (CMC)): 100 % of control
T/C (dose: 3.2 mg/kg/injection, schedule: Q01DX010 (ip), vehicle: saline): 114 % of control
T/C (dose: 4.0 mg/kg/injection, schedule: Q01DX001 (ip), vehicle: carboxymethylcellulose (CMC)): 120 % of control
T/C (dose: 4.0 mg/kg/injection, schedule: Q01DX001 (ip), vehicle: other): 116 % of control
T/C (dose: 4.0 mg/kg/injection, schedule: Q01DX001 (oral), vehicle: carboxymethylcellulose (CMC)): 90 % of control
T/C (dose: 4.0 mg/kg/injection, schedule: Q01DX001 (sc), vehicle: carboxymethylcellulose (CMC)): 100 % of control
T/C (dose: 4.0 mg/kg/injection, schedule: Q01DX009 (ip), vehicle: other): 208 % of control
T/C (dose: 4.0 mg/kg/injection, schedule: Q## X008 (ip), vehicle: carboxymethylcellulose (CMC)): 155 % of control
T/C (dose: 4.0 mg/kg/injection, schedule: Q## X024 (ip), vehicle: carboxymethylcellulose (CMC)): 100 % of control
T/C (dose: 6.0 mg/kg/injection, schedule: Q01DX009 (oral), vehicle: carboxymethylcellulose (CMC)): 90 % of control
T/C (dose: 8.0 mg/kg/injection, schedule: Q01DX001 (oral), vehicle: carboxymethylcellulose (CMC)): 90 % of control
T/C (dose: 8.0 mg/kg/injection, schedule: Q01DX001 (sc), vehicle: carboxymethylcellulose (CMC)): 109 % of control
T/C (dose: 12.0 mg/kg/injection, schedule: Q01DX009 (oral), vehicle: carboxymethylcellulose (CMC)): 100 % of control
T/C (dose: 16.0 mg/kg/injection, schedule: Q01DX001 (oral), vehicle: carboxymethylcellulose (CMC)): 100 % of control
T/C (dose: 32.0 mg/kg/injection, schedule: Q01DX001 (oral), vehicle: carboxymethylcellulose (CMC)): 90 % of control
T/C (dose: 25.0 micrograms/kg/injection, schedule: Q01DX010 (ip), vehicle: saline): 100 % of control
T/C (dose: 50.0 micrograms/kg/injection, schedule: Q01DX010 (ip), vehicle: saline): 122 % of control
T/C (dose: 62.5 micrograms/kg/injection, schedule: Q01DX010 (ip), vehicle: saline): 109 % of control
T/C (dose: 125.0 micrograms/kg/injection, schedule: Q01DX010 (ip), vehicle: saline): 109 % of control
T/C (dose: 200.0 micrograms/kg/injection, schedule: Q01DX010 (ip), vehicle: saline): 154 % of control
T/C (dose: 400.0 micrograms/kg/injection, schedule: Q01DX010 (ip), vehicle: saline): 154 % of control
T/C (dose: 500.0 micrograms/kg/injection, schedule: Q01DX010 (ip), vehicle: saline): 209 % of control
T/C (dose: 800.0 micrograms/kg/injection, schedule: Q01DX010 (ip), vehicle: saline): 181 % of control
